Test results published in the NIST ThermoML archive (doi:10.1021/acs.jced.8b00755).
Several values for one entry are separate records, joined by “and”; a condition that tells them apart may be missing. Equal entries are not always repeated. Numbers after ± are expanded uncertainties.

What was measured:
[1] = refractive index (Na D-line) (dimensionless); xn = mol fraction of the nth substance listed; details: 298.15 K, 101.3 kPa, Liquid, Standard Abbe refractometry
[2] = relative permittivity at zero frequency (dimensionless); xn = mol fraction of the nth substance listed; details: 298.15 K, 101.3 kPa, Liquid, Coaxial cylinder capacitor
[3] = xn = mol fraction of the nth substance listed; details: 298.15 K, 101.3 kPa, Liquid, Vibrating tube method
[4] = 298.15 K; 101.3 kPa; Liquid; Vibrating tube method
[5] = refractive index (Na D-line) (dimensionless); details: 298.15 K; 101.3 kPa; Liquid; Standard Abbe refractometry
[6] = relative permittivity at zero frequency (dimensionless); details: 298.15 K; 101.3 kPa; Liquid; Coaxial cylinder capacitor

OC1CCCCC1 [cyclohexanol] + O=C1CCCCC1
Details	refractive index, [1]	relative permittivity at zero frequency, [2]
x1 = 0.1	1.4498 ± 0.0011	15.16 ± 0.67
x1 = 0.2	1.4512 ± 0.0011	14.63 ± 0.66
x1 = 0.3	1.4527 ± 0.0011	14.24 ± 0.65
x1 = 0.4	1.4542 ± 0.0011	13.99 ± 0.64
x1 = 0.5	1.4558 ± 0.0011	13.91 ± 0.64
x1 = 0.6	1.4574 ± 0.0011	13.98 ± 0.64
x1 = 0.7	1.4591 ± 0.0011	14.2 ± 0.6
x1 = 0.8	1.4608 ± 0.0011	14.57 ± 0.65
x1 = 0.9	1.4626 ± 0.0011	15.08 ± 0.67
x1 = 1	1.4646 ± 0.0011	15.71 ± 0.68

O=C1CCCCC1 [cyclohexanone] + CCCCO
Details	mass density, [3] [kg/m3]	refractive index, [1]	relative permittivity at zero frequency, [2]
x2 = 0	942.47 ± 1	1.4485 ± 0.0011	15.81 ± 0.68
x2 = 0.1	932.83 ± 1	1.4441 ± 0.0011	15.3 ± 0.67
x2 = 0.2	922.35 ± 1.1	1.4396 ± 0.0011	14.95 ± 0.66
x2 = 0.3	910.57 ± 1.1	1.4347 ± 0.0011	14.71 ± 0.66
x2 = 0.4	897.77 ± 1.1	1.4301 ± 0.0011	14.62 ± 0.66
x2 = 0.5	883.98 ± 1.1	1.4253 ± 0.0011	14.71 ± 0.66
x2 = 0.6	869.51 ± 1.1	1.4204 ± 0.0011	14.97 ± 0.66
x2 = 0.7	854.54 ± 1.1	1.4147 ± 0.0011	15.39 ± 0.67
x2 = 0.8	838.96 ± 1.1	1.4086 ± 0.0011	15.97 ± 0.68
x2 = 0.9	822.78 ± 1.1	1.4035 ± 0.0011	16.68 ± 0.7

CCCCO [butan-1-ol] + O=C1CCCCC1
x1 = 1
Details	mass density [kg/m3]	refractive index	relative permittivity at zero frequency
[1]	–	1.3971 ± 0.0011	–
[2]	–	–	17.49 ± 0.71
[3]	805.92 ± 1	–	–

CCCCCCO [hexan-1-ol] + O=C1CCCCC1
x1 = 1
Details	mass density [kg/m3]	refractive index	relative permittivity at zero frequency
[1]	–	1.4161 ± 0.0011	–
[2]	–	–	13.06 ± 0.62
[3]	815.99 ± 1.2	–	–

O=C1CCCCC1 [cyclohexanone] + OC1CCCCC1
x2 = 0
Details	refractive index	relative permittivity at zero frequency
[1]	1.4485 ± 0.0011	–
[2]	–	15.81 ± 0.68

CCO [ethanol]
Details	mass density [kg/m3]	refractive index	relative permittivity at zero frequency
[4]	785.26 ± 1	–	–
[5]	–	1.3594 ± 0.0011	–
[6]	–	–	24.37 ± 0.84

CCCCCCCCO [octan-1-ol] + O=C1CCCCC1
x1 = 1
Details	mass density [kg/m3]	refractive index	relative permittivity at zero frequency
[1]	–	1.4276 ± 0.0011	–
[2]	–	–	9.85 ± 0.55
[3]	821.98 ± 1	–	–

CCCCCCO [hexan-1-ol]
Details	mass density [kg/m3]	refractive index	relative permittivity at zero frequency
[4]	815.99 ± 1.2	–	–
[5]	–	1.4161 ± 0.0011	–
[6]	–	–	13.06 ± 0.62

OC1CCCCC1 [cyclohexanol] + C1CCCCC1
Details	refractive index, [1]	relative permittivity at zero frequency, [2]
x1 = 0.02	1.424 ± 0.001	2.084 ± 0.29
x1 = 0.04	1.4245 ± 0.001	2.151 ± 0.29
x1 = 0.05	1.4247 ± 0.001	2.184 ± 0.3
x1 = 0.06	1.425 ± 0.001	2.219 ± 0.3
x1 = 0.08	1.4255 ± 0.001	2.285 ± 0.3
x1 = 0.1	1.426 ± 0.001	2.354 ± 0.3

O=C1CCCC1 [cyclopentanone] + OC1CCCCC1
Details	refractive index, [1]	relative permittivity at zero frequency, [2]
x2 = 0	1.4347 ± 0.0011	13.52 ± 0.63
x2 = 0.1	1.4372 ± 0.0011	13.1 ± 0.62
x2 = 0.2	1.4397 ± 0.0011	12.78 ± 0.62
x2 = 0.3	1.4423 ± 0.0011	12.55 ± 0.61
x2 = 0.4	1.445 ± 0.0011	12.42 ± 0.61
x2 = 0.5	1.4479 ± 0.0011	12.43 ± 0.61
x2 = 0.6	1.4509 ± 0.0011	12.61 ± 0.61
x2 = 0.7	1.4541 ± 0.0011	12.99 ± 0.62
x2 = 0.8	1.4575 ± 0.0011	13.59 ± 0.63
x2 = 0.9	1.461 ± 0.0011	14.48 ± 0.65

C1CCCCC1 [cyclohexane] + O=C1CCCCC1
x2 = 0
Details	refractive index	relative permittivity at zero frequency
[1]	1.4235 ± 0.001	–
[2]	–	2.021 ± 0.29 and 2.02 ± 0.29

CCCCCCCCO [octan-1-ol]
Details	mass density [kg/m3]	refractive index	relative permittivity at zero frequency
[4]	821.98 ± 1	–	–
[5]	–	1.4276 ± 0.0011	–
[6]	–	–	9.85 ± 0.55

O=C1CCCC1 [cyclopentanone] + C1CCCCC1
Details	refractive index, [1]	relative permittivity at zero frequency, [2]
x1 = 0.1	1.4236 ± 0.001	2.78 ± 0.32
x1 = 0.2	1.4239 ± 0.001	3.61 ± 0.36
x1 = 0.3	1.4244 ± 0.001	4.51 ± 0.39
x1 = 0.4	1.4252 ± 0.001	5.51 ± 0.42
x1 = 0.5	1.4262 ± 0.001	6.6 ± 0.46
x1 = 0.6	1.4274 ± 0.001	7.78 ± 0.49
x1 = 0.7	1.4289 ± 0.0011	9.06 ± 0.53
x1 = 0.8	1.4306 ± 0.0011	10.45 ± 0.56
x1 = 0.9	1.4325 ± 0.0011	11.94 ± 0.6
x1 = 1	1.4347 ± 0.0011	13.52 ± 0.63

C1CCCCC1 [cyclohexane] + O=C1CCCC1
x2 = 0
Details	refractive index	relative permittivity at zero frequency
[1]	1.4235 ± 0.001	–
[2]	–	2.02 ± 0.29

O=C1CCCCC1 [cyclohexanone]
Details	mass density [kg/m3]	refractive index	relative permittivity at zero frequency
[4]	942.47 ± 1	–	–
[5]	–	1.4485 ± 0.0011	–
[6]	–	–	15.81 ± 0.68

OC1CCCCC1 [cyclohexanol]
Details	refractive index	relative permittivity at zero frequency
[5]	1.4646 ± 0.0011	–
[6]	–	15.71 ± 0.68

O=C1CCCCC1 [cyclohexanone] + C1CCCCC1
Details	refractive index, [1]	relative permittivity at zero frequency, [2]
x1 = 0.02	1.4239 ± 0.001	2.189 ± 0.3
x1 = 0.04	1.4243 ± 0.001	2.364 ± 0.3
x1 = 0.05	1.4245 ± 0.001	2.467 ± 0.31
x1 = 0.06	1.4247 ± 0.001	2.563 ± 0.31
x1 = 0.08	1.4251 ± 0.001	2.746 ± 0.32
x1 = 0.1	1.4255 ± 0.001 and 1.4254 ± 0.001	2.932 ± 0.33 and 3 ± 0.33
x1 = 0.2	1.4276 ± 0.001	4.12 ± 0.38
x1 = 0.3	1.4298 ± 0.001	5.35 ± 0.42
x1 = 0.4	1.4322 ± 0.001	6.66 ± 0.46
x1 = 0.5	1.4347 ± 0.001	8.03 ± 0.5
x1 = 0.6	1.4372 ± 0.0011	9.45 ± 0.54
x1 = 0.7	1.4399 ± 0.0011	10.94 ± 0.57
x1 = 0.8	1.4427 ± 0.0011	12.49 ± 0.61
x1 = 0.9	1.4456 ± 0.0011	14.11 ± 0.65
x1 = 1	1.4485 ± 0.0011	15.81 ± 0.68
